Results: patent US20240238299A1, “USE OF PYRROLOPYRIMIDINE COMPOUND” (GUANGZHOU JOYO PHARMATECH CO., LTD, priority 2021, published 2024)

System: MOG35-55-induced experimental autoimmune encephalomyelitis (EAE) mouse model
Test: MOG35-55-induced EAE mouse model, clinical scoring and incidence
Type: in vivo, C57BL/6 mice
Conditions: for inhibition rate of AUC for clinical scoring: 14 days, vs vehicle control

CN(c1ncnc2[nH]ccc12)[C@@H]1CCc2cc(C#N)nn2C1 [Compound I]
50%: incidence of EAE (G5, 3 mg/kg BID oral, day 24) | incidence of EAE (G5, 3 mg/kg BID oral, day 25) | incidence of EAE (G5, 3 mg/kg BID oral, day 26) | incidence of EAE (G6, 10 mg/kg BID oral, day 15) | incidence of EAE (G6, 10 mg/kg BID oral, day 16) | incidence of EAE (G7, 20 mg/kg BID oral, day 14) | incidence of EAE (G8, 20 mg/kg QD oral, day 14) | incidence of EAE (G8, 20 mg/kg QD oral, day 20) | incidence of EAE (G8, 20 mg/kg QD oral, day 21)
1.30: EAE clinical scoring, Mean (G5, 3 mg/kg BID oral, day 20) | EAE clinical scoring, Mean (G8, 20 mg/kg QD oral, day 16) | EAE clinical scoring, Mean (G8, 20 mg/kg QD oral, day 18)
10%: incidence of EAE (G6, 10 mg/kg BID oral, day 20) | incidence of EAE (G7, 20 mg/kg BID oral, day 24) | incidence of EAE (G7, 20 mg/kg BID oral, day 25) | incidence of EAE (G7, 20 mg/kg BID oral, day 26) | incidence of EAE (G7, 20 mg/kg BID oral, day 27)
0.70: EAE clinical scoring, Mean (G8, 20 mg/kg QD oral, day 21)
0.30: EAE clinical scoring, Mean (G6, 10 mg/kg BID oral, day 20) | EAE clinical scoring, Mean (G6, 10 mg/kg BID oral, day 21) | EAE clinical scoring, Mean (G6, 10 mg/kg BID oral, day 22) | EAE clinical scoring, Mean (G6, 10 mg/kg BID oral, day 27) | EAE clinical scoring, Mean (G7, 20 mg/kg BID oral, day 13) | EAE clinical scoring, Mean (G7, 20 mg/kg BID oral, day 24) | EAE clinical scoring, Mean (G7, 20 mg/kg BID oral, day 25) | EAE clinical scoring, Mean (G7, 20 mg/kg BID oral, day 26) | EAE clinical scoring, Mean (G7, 20 mg/kg BID oral, day 27) | EAE clinical scoring, Mean (G8, 20 mg/kg QD oral, day 24) | EAE clinical scoring, Mean (G8, 20 mg/kg QD oral, day 25) | EAE clinical scoring, Mean (G8, 20 mg/kg QD oral, day 26) | EAE clinical scoring, Mean (G8, 20 mg/kg QD oral, day 27)
0.60: EAE clinical scoring, Mean (G5, 3 mg/kg BID oral, day 15) | EAE clinical scoring, Mean (G5, 3 mg/kg BID oral, day 27) | EAE clinical scoring, Mean (G6, 10 mg/kg BID oral, day 16) | EAE clinical scoring, Mean (G6, 10 mg/kg BID oral, day 18) | EAE clinical scoring, Mean (G7, 20 mg/kg BID oral, day 14) | EAE clinical scoring, Mean (G8, 20 mg/kg QD oral, day 14)
0.90: EAE clinical scoring, Mean (G5, 3 mg/kg BID oral, day 16) | EAE clinical scoring, Mean (G7, 20 mg/kg BID oral, day 16) | EAE clinical scoring, Mean (G7, 20 mg/kg BID oral, day 20)
1.10: EAE clinical scoring, Mean (G5, 3 mg/kg BID oral, day 21) | EAE clinical scoring, Mean (G5, 3 mg/kg BID oral, day 22) | EAE clinical scoring, Mean (G7, 20 mg/kg BID oral, day 18) | EAE clinical scoring, Mean (G7, 20 mg/kg BID oral, day 19) | EAE clinical scoring, Mean (G8, 20 mg/kg QD oral, day 15) | EAE clinical scoring, Mean (G8, 20 mg/kg QD oral, day 19)
0.40: EAE clinical scoring, Mean (G5, 3 mg/kg BID oral, day 14) | EAE clinical scoring, Mean (G6, 10 mg/kg BID oral, day 14) | EAE clinical scoring, Mean (G6, 10 mg/kg BID oral, day 19) | EAE clinical scoring, Mean (G6, 10 mg/kg BID oral, day 23) | EAE clinical scoring, Mean (G6, 10 mg/kg BID oral, day 24) | EAE clinical scoring, Mean (G6, 10 mg/kg BID oral, day 25) | EAE clinical scoring, Mean (G6, 10 mg/kg BID oral, day 26) | EAE clinical scoring, Mean (G8, 20 mg/kg QD oral, day 22) | EAE clinical scoring, Mean (G8, 20 mg/kg QD oral, day 23)
80%: incidence of EAE (G5, 3 mg/kg BID oral, day 17) | incidence of EAE (G7, 20 mg/kg BID oral, day 18) | incidence of EAE (G7, 20 mg/kg BID oral, day 19) | incidence of EAE (G8, 20 mg/kg QD oral, day 17)
0%: incidence of EAE (G5, 3 mg/kg BID oral, day 0) | incidence of EAE (G5, 3 mg/kg BID oral, day 2) | incidence of EAE (G5, 3 mg/kg BID oral, day 4) | incidence of EAE (G5, 3 mg/kg BID oral, day 7) | incidence of EAE (G5, 3 mg/kg BID oral, day 9) | incidence of EAE (G5, 3 mg/kg BID oral, day 11) | incidence of EAE (G5, 3 mg/kg BID oral, day 12) | incidence of EAE (G6, 10 mg/kg BID oral, day 0) | incidence of EAE (G6, 10 mg/kg BID oral, day 2) | incidence of EAE (G6, 10 mg/kg BID oral, day 4) | incidence of EAE (G6, 10 mg/kg BID oral, day 7) | incidence of EAE (G6, 10 mg/kg BID oral, day 9) | incidence of EAE (G6, 10 mg/kg BID oral, day 11) | incidence of EAE (G6, 10 mg/kg BID oral, day 12) | incidence of EAE (G7, 20 mg/kg BID oral, day 0) | incidence of EAE (G7, 20 mg/kg BID oral, day 2) | incidence of EAE (G7, 20 mg/kg BID oral, day 4) | incidence of EAE (G7, 20 mg/kg BID oral, day 7) | incidence of EAE (G7, 20 mg/kg BID oral, day 9) | incidence of EAE (G7, 20 mg/kg BID oral, day 11) | incidence of EAE (G7, 20 mg/kg BID oral, day 12) | incidence of EAE (G8, 20 mg/kg QD oral, day 0) | incidence of EAE (G8, 20 mg/kg QD oral, day 2) | incidence of EAE (G8, 20 mg/kg QD oral, day 4) | incidence of EAE (G8, 20 mg/kg QD oral, day 7) | incidence of EAE (G8, 20 mg/kg QD oral, day 9) | incidence of EAE (G8, 20 mg/kg QD oral, day 11) | incidence of EAE (G8, 20 mg/kg QD oral, day 12)
1.40: EAE clinical scoring, Mean (G8, 20 mg/kg QD oral, day 17)
0.00: EAE clinical scoring, Mean (G5, 3 mg/kg BID oral, day 0) | EAE clinical scoring, Mean (G5, 3 mg/kg BID oral, day 2) | EAE clinical scoring, Mean (G5, 3 mg/kg BID oral, day 4) | EAE clinical scoring, Mean (G5, 3 mg/kg BID oral, day 7) | EAE clinical scoring, Mean (G5, 3 mg/kg BID oral, day 9) | EAE clinical scoring, Mean (G5, 3 mg/kg BID oral, day 11) | EAE clinical scoring, Mean (G5, 3 mg/kg BID oral, day 12) | EAE clinical scoring, Mean (G6, 10 mg/kg BID oral, day 0) | EAE clinical scoring, Mean (G6, 10 mg/kg BID oral, day 2) | EAE clinical scoring, Mean (G6, 10 mg/kg BID oral, day 4) | EAE clinical scoring, Mean (G6, 10 mg/kg BID oral, day 7) | EAE clinical scoring, Mean (G6, 10 mg/kg BID oral, day 9) | EAE clinical scoring, Mean (G6, 10 mg/kg BID oral, day 11) | EAE clinical scoring, Mean (G6, 10 mg/kg BID oral, day 12) | EAE clinical scoring, Mean (G7, 20 mg/kg BID oral, day 0) | EAE clinical scoring, Mean (G7, 20 mg/kg BID oral, day 2) | EAE clinical scoring, Mean (G7, 20 mg/kg BID oral, day 4) | EAE clinical scoring, Mean (G7, 20 mg/kg BID oral, day 7) | EAE clinical scoring, Mean (G7, 20 mg/kg BID oral, day 9) | EAE clinical scoring, Mean (G7, 20 mg/kg BID oral, day 11) | EAE clinical scoring, Mean (G7, 20 mg/kg BID oral, day 12) | EAE clinical scoring, Mean (G8, 20 mg/kg QD oral, day 0) | EAE clinical scoring, Mean (G8, 20 mg/kg QD oral, day 2) | EAE clinical scoring, Mean (G8, 20 mg/kg QD oral, day 4) | EAE clinical scoring, Mean (G8, 20 mg/kg QD oral, day 7) | EAE clinical scoring, Mean (G8, 20 mg/kg QD oral, day 9) | EAE clinical scoring, Mean (G8, 20 mg/kg QD oral, day 11) | EAE clinical scoring, Mean (G8, 20 mg/kg QD oral, day 12)
3 mg/kg: effective dose starting at (twice daily (BID), oral, EAE clinical symptoms)
77%: inhibition rate of AUC for clinical scoring (10 mg/kg BID oral)
100%: incidence of EAE (G5, 3 mg/kg BID oral, day 19)
1.00: EAE clinical scoring, Mean (G5, 3 mg/kg BID oral, day 23) | EAE clinical scoring, Mean (G7, 20 mg/kg BID oral, day 17)
0.80: EAE clinical scoring, Mean (G5, 3 mg/kg BID oral, day 24) | EAE clinical scoring, Mean (G5, 3 mg/kg BID oral, day 25) | EAE clinical scoring, Mean (G5, 3 mg/kg BID oral, day 26) | EAE clinical scoring, Mean (G7, 20 mg/kg BID oral, day 15) | EAE clinical scoring, Mean (G7, 20 mg/kg BID oral, day 21) | EAE clinical scoring, Mean (G8, 20 mg/kg QD oral, day 20)
30%: incidence of EAE (G5, 3 mg/kg BID oral, day 27) | incidence of EAE (G6, 10 mg/kg BID oral, day 23) | incidence of EAE (G6, 10 mg/kg BID oral, day 24) | incidence of EAE (G6, 10 mg/kg BID oral, day 25) | incidence of EAE (G6, 10 mg/kg BID oral, day 26) | incidence of EAE (G6, 10 mg/kg BID oral, day 27) | incidence of EAE (G7, 20 mg/kg BID oral, day 13) | incidence of EAE (G7, 20 mg/kg BID oral, day 22) | incidence of EAE (G7, 20 mg/kg BID oral, day 23) | incidence of EAE (G8, 20 mg/kg QD oral, day 24) | incidence of EAE (G8, 20 mg/kg QD oral, day 25) | incidence of EAE (G8, 20 mg/kg QD oral, day 26) | incidence of EAE (G8, 20 mg/kg QD oral, day 27)
60%: inhibition rate of AUC for clinical scoring (20 mg/kg QD oral) | incidence of EAE (G5, 3 mg/kg BID oral, day 15) | incidence of EAE (G5, 3 mg/kg BID oral, day 21) | incidence of EAE (G5, 3 mg/kg BID oral, day 22) | incidence of EAE (G5, 3 mg/kg BID oral, day 23) | incidence of EAE (G7, 20 mg/kg BID oral, day 15) | incidence of EAE (G7, 20 mg/kg BID oral, day 16) | incidence of EAE (G7, 20 mg/kg BID oral, day 21)
44%: inhibition rate of AUC for clinical scoring (3 mg/kg BID oral)
0.50: EAE clinical scoring, Mean (G6, 10 mg/kg BID oral, day 15) | EAE clinical scoring, Mean (G6, 10 mg/kg BID oral, day 17) | EAE clinical scoring, Mean (G7, 20 mg/kg BID oral, day 22) | EAE clinical scoring, Mean (G7, 20 mg/kg BID oral, day 23)
1.50: EAE clinical scoring, Mean (G5, 3 mg/kg BID oral, day 17)
70%: incidence of EAE (G5, 3 mg/kg BID oral, day 16) | incidence of EAE (G5, 3 mg/kg BID oral, day 20) | incidence of EAE (G7, 20 mg/kg BID oral, day 17) | incidence of EAE (G7, 20 mg/kg BID oral, day 20) | incidence of EAE (G8, 20 mg/kg QD oral, day 15) | incidence of EAE (G8, 20 mg/kg QD oral, day 16) | incidence of EAE (G8, 20 mg/kg QD oral, day 18) | incidence of EAE (G8, 20 mg/kg QD oral, day 19)
40%: incidence of EAE (G5, 3 mg/kg BID oral, day 14) | incidence of EAE (G6, 10 mg/kg BID oral, day 14) | incidence of EAE (G6, 10 mg/kg BID oral, day 17) | incidence of EAE (G6, 10 mg/kg BID oral, day 18) | incidence of EAE (G8, 20 mg/kg QD oral, day 22) | incidence of EAE (G8, 20 mg/kg QD oral, day 23)
20%: incidence of EAE (G5, 3 mg/kg BID oral, day 13) | incidence of EAE (G6, 10 mg/kg BID oral, day 13) | incidence of EAE (G6, 10 mg/kg BID oral, day 19) | incidence of EAE (G6, 10 mg/kg BID oral, day 21) | incidence of EAE (G6, 10 mg/kg BID oral, day 22) | incidence of EAE (G8, 20 mg/kg QD oral, day 13)
1.90: EAE clinical scoring, Mean (G5, 3 mg/kg BID oral, day 18) | EAE clinical scoring, Mean (G5, 3 mg/kg BID oral, day 19)
90%: incidence of EAE (G5, 3 mg/kg BID oral, day 18)
0.20: EAE clinical scoring, Mean (G5, 3 mg/kg BID oral, day 13) | EAE clinical scoring, Mean (G6, 10 mg/kg BID oral, day 13) | EAE clinical scoring, Mean (G8, 20 mg/kg QD oral, day 13)
63%: inhibition rate of AUC for clinical scoring (20 mg/kg BID oral)
